From article PMC12557437, “Research towards selective inhibition of the CLK3 kinase” (Beilstein Journal of Organic Chemistry, 2025)

Columns and labels:
Hs_DYRK1A = target: T1, Hs_DYRK1A (Homo sapiens, UniProt Q13627); assay: radiometric γ33P-ATP kinase assay (Eurofins); type: biochemical; details: 15 µM ATP; dose-response, points in duplicate
T1 construct: purchased Eurofins, UK
Procedure: (§1) Finally, in order to complete our profiling of VS-77, we then measured its activity against the DYRK 1A, DYRK1B and DYRK2 kinases and the results are reported in Table 3.
(§2) 2- Kinase inhibition studies
(§3) Kinase enzymatic activities were assayed using both luminescent ADP detection assay
(§4) (ADP-GloTM assay kit, Promega, Madison, WI) or radiometric kinase assay. These
(§5) assays were performed using the protocols described in our previous publication. […]
(§6) 1.Brahmaiah, D.; Kanaka Durga Bhavani, A.; Aparna, P.; Sampath Kumar, N.; Solhi,
(§7) H.; Le Guevel, R.; Baratte, B.; Ruchaud, S.; Bach, S.; Singh Jadav, S.; Raji Reddy, C.;
(§8) Roisnel, T.; Mosset, P.; Levoin, N.; Grée, R. Bioorg.
(§9) R.; Baratte, B.; Robert, T.; Ruchaud, S.; Bach, S.; Jadav, S. S.; Reddy, C. R.; Mosset,
(§10) P.; Gouault, N.; Levoin, N.; Grée, R. Molecules 2022, 27, 6149. […]

Hs_DYRK1B = target: T2, Hs_DYRK1B (Homo sapiens, UniProt Q9Y463); assay: radiometric γ33P-ATP kinase assay (Eurofins); type: biochemical; details: 15 µM ATP; dose-response, points in duplicate
T2 construct: purchased Eurofins, UK
T2 sequence (Q9Y463 whole entry): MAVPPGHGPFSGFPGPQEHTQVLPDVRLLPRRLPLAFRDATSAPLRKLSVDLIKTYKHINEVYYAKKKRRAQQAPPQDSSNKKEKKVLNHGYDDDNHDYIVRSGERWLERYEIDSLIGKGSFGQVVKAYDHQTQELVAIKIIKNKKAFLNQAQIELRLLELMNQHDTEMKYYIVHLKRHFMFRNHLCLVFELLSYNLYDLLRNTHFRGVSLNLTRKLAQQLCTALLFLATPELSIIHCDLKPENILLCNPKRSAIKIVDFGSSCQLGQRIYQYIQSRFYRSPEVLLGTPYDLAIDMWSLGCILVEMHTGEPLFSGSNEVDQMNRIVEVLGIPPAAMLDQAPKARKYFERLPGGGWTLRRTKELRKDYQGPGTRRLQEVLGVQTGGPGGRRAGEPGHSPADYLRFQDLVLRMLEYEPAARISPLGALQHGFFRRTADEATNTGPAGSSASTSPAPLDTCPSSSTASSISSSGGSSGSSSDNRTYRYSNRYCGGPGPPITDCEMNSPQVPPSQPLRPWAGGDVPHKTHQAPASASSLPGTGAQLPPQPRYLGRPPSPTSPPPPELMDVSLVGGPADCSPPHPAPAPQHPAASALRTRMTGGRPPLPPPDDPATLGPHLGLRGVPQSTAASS
Procedure: as §1, §2, §3, §4, §5, §6, §7, §8, §9, §10

Hs_DYRK2 = target: T3, Hs_DYRK2 (Homo sapiens, UniProt Q92630); assay: radiometric γ33P-ATP kinase assay (Eurofins); type: biochemical; details: 15 µM ATP; dose-response, points in duplicate
T3 construct: purchased Eurofins, UK
T3 sequence (Q92630 whole entry): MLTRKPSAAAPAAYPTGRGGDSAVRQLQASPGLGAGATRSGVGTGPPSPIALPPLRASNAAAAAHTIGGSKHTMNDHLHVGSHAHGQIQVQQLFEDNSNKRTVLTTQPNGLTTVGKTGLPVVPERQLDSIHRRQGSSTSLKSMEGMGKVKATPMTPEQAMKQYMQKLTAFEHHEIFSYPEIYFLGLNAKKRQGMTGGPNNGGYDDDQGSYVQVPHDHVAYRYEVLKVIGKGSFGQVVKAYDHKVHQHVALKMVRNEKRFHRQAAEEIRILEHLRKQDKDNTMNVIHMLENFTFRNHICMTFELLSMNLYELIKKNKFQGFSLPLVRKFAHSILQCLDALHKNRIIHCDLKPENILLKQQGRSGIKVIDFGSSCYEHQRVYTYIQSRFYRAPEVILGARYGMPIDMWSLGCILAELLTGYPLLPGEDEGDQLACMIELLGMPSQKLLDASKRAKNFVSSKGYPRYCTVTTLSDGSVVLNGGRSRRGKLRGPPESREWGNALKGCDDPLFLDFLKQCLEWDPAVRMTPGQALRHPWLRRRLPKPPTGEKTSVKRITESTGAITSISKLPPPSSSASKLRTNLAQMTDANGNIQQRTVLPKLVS
Procedure: as §1, §2, §3, §4, §5, §6, §7, §8, §9, §10

Rn_DYRK1A = Rn_DYRK1A (Rattus norvegicus, UniProt Q63470); assay: radiometric γ33P-ATP kinase assay (Eurofins); type: biochemical; details: 15 µM ATP; dose-response, points in duplicate
Procedure: as §1, §2, §3, §4, §5, §6, §7, §8, §9, §10

CLK1, CLK2, and CLK4 = assay: radiometric kinase assay, summary for the other CLKs; type: biochemical, mouse; details: Table 2; read-out: inhibition of CLK1, CLK2, and CLK4 (best value)
From the text: The results are reported in Table 2 and in Supporting Information File 1.

- IC50 (Hs_DYRK1A): 5.31 µM
- IC50 (Hs_DYRK1B): 4.6 µM
- IC50 (Hs_DYRK2): 11.7 µM
- IC50 (Rn_DYRK1A): 14.8 µM
- IC50 (CLK1, CLK2, and CLK4): 60 nM
Structure (SMILES): Cc1ccc(-n2cc(COc3cccc4cnc(Nc5cc(Cl)cc(-c6cccc(C(=O)O)c6)c5)nc34)nn2)c([N+](=O)[O-])c1 [Compound 13b]
